Measured values as given in ChEMBL document CHEMBL4725449, “Brain Penetrable Inhibitors of Ceramide Galactosyltransferase for the Treatment of Lysosomal Storage Disorders” (ACS Med Chem Lett, 2020).

What was measured:
[1] = biological target: T1, UDP-glucuronosyltransferase 2B7 (Homo sapiens, UniProt P16662); assay: Inhibition of UGT2B7 (unknown origin); format: ADME
T1 sequence (P16662 whole entry): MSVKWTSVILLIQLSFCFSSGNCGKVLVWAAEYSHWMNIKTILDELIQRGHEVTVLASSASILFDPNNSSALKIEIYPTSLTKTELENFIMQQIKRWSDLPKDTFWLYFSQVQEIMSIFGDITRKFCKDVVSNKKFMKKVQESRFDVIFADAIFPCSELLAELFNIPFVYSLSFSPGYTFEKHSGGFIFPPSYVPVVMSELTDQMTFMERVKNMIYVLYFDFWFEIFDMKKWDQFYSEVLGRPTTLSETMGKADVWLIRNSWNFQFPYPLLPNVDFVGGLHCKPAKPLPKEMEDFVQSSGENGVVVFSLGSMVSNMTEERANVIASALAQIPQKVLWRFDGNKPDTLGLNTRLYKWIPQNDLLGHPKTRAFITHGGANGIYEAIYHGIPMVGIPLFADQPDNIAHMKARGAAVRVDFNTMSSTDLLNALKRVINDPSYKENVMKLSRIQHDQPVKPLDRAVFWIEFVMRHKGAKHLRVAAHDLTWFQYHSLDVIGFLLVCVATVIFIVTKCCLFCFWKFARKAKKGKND

[2] = In vivo inhibition of SFT de novo synthesis in adult C57BL/6 mouse kidney assessed as reduction in [13C] galactose incorporation into SFT at 30 mg/kg, po via gavage treated with compound for 1 hr prior to intraperitoneal injection of [13C] galactose measured after 5 hrs of compound administration relative to control; format: functional
[3] = Protein binding in C57BL/6 mouse plasma; format: ADME, cell-free; conditions: read-out: PPB
[4] = Cmax in Beagle dog at 3 mg/kg, po; format: ADME, organism-based, Canis lupus familiaris; set-up: route oral, dose 3 mg/kg; conditions: in vivo
[5] = AUC (0 to last) in Beagle dog at 3 mg/kg, po; format: ADME, organism-based, Canis lupus familiaris; set-up: time 0 - last, route oral, dose 3 mg/kg; conditions: in vivo
[6] = Apparent permeability of the compound at pH 6.5 to 7.4 by PAMPA; format: ADME
[7] = In vivo inhibition of GalCerde novo synthesis in po dosed PN14 to PN21 days C57BL/6 mouse brain assessed as reduction in [13C] galactose incorporation into GalCer administered twice for 2 days and single dose at day 3 treated 1 hr prior to intraperitoneal injection of [13C] galactose measured after 5 hrs of last dose; format: functional; conditions: C57BL/6, 72 h, time 3 day
[8] = Tmax in C57BL/6 mouse at 3 mg/kg, po; format: ADME, organism-based; conditions: in vivo
[9] = In vivo inhibition of SFT de novo synthesis in PN14 to PN21 days C57BL/6 mouse brain assessed as reduction in [13C] galactose incorporation into SFT at 30 mg/kg, po bid for 2 days and single dose at day 3 treated 1 hr prior to intraperitoneal injection of [13C] galactose measured after 5 hrs of last dose relative to control; format: functional; conditions: C57BL/6, 72 h, time 3 day
[10] = biological target: T2, 2-hydroxyacylsphingosine 1-beta-galactosyltransferase (Homo sapiens, UniProt Q16880); assay: Inhibition of UGT8 in human OE19 cells assessed as redcution in GalCer accumulation measured after 72 hrs by LC-MS/MS analysis; format: cell-based
T2 sequence (Q16880 whole entry): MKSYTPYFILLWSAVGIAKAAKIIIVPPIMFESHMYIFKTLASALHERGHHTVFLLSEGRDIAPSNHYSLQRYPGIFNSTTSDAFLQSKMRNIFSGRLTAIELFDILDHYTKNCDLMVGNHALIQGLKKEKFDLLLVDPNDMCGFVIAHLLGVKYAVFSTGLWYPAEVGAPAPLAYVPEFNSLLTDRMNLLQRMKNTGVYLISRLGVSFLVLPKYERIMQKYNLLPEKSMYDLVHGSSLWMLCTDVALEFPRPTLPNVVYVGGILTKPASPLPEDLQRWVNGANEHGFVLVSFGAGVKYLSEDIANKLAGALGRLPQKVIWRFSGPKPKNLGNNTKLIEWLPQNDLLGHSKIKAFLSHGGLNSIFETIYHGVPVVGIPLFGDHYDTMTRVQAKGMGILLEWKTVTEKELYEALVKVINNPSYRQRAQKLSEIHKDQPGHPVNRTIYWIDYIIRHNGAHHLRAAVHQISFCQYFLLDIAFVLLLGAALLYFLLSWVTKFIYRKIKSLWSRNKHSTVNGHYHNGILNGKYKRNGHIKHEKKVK

[11] = Clearance in Beagle dog at 1 mg/kg, iv; format: ADME, organism-based, Canis lupus familiaris; conditions: in vivo
[12] = Clearance in C57BL/6 mouse at 1 mg/kg, iv; format: ADME, organism-based; conditions: in vivo
[13] = Ratio of drug concentration in brain to plasma in C57BL/6 mouse measured at 1 hr; format: ADME, organism-based; conditions: read-out: BPR
Mus musculus = assay: (§1) In vivo inhibition of GalCer de novo synthesis in po dosed adult C57BL/6 mouse kidney assessed as reduction in [13C] galactose incorporation into GalCer treated with compound for 1 hr prior to intraperitoneal injection of [13C] galactose measured after 5 hrs of compound administration; format: functional
[14] = as §1; format: functional
[15] = Half life in Sprague-Dawley rat at 1 mg/kg, iv; format: ADME, organism-based; conditions: in vivo

CNC(=O)c1csc2c(C(F)(F)F)cc(N3CCC(OC(=O)N[C@@H](C)COC(F)(F)F)CC3)nc12
IC50 [1]: > 10000 nM
inhibition in vivo at 30 mg/kg [2]: 99%
fraction unbound [3]: < 0.01
Cmax [4]: 693 ng/mL
AUC(0-t) [5]: 4190 ng·h/mL
Papp [6]: > 80 ×10⁻⁶ cm/s
ED50 [7]: < 3 mg/kg
Tmax [8]: 0.5 h
inhibition in vivo at 30 mg/kg [9]: 98%
IC50 [10]: 0.2 nM
clearance [11]: 6.32 mL/min/kg
clearance [12]: 24.7 mL/min/kg
Kp at 1 h [13]: 0.46
inhibition (Mus musculus): Dose-dependent effect
ED50 [14]: 1 mg/kg
half-life [15]: 4.3 h
